Measured values as given in article PMC4685510, “A Cell Biologist’s Field Guide to Aurora Kinase Inhibitors” (Frontiers in Oncology, 2015).
Values joined by “and” are separate entries in the source; they are usually repeats but may differ in a detail not shown here. Equal values may be shown once. Read-outs that look alike come from different tables or passages of the source.

How the values were obtained:
Assay in all cases: biochemical
Assay type in all cases: biochemical
[1] = target: 363 human kinases (including Aurora A/B/C) (Homo sapiens, UniProt Q9P286); conditions: PAK5; for remaining activity at 0.1 µM: 100 nM; for remaining activity at 0.1 µM / remaining activity at 0.5 µM: read-out: % Enzyme Activity (relative to DMSO controls)
Chain of 363 human kinases (including Aurora A/B/C) (Homo sapiens, UniProt Q9P286) (Q9P286 whole entry): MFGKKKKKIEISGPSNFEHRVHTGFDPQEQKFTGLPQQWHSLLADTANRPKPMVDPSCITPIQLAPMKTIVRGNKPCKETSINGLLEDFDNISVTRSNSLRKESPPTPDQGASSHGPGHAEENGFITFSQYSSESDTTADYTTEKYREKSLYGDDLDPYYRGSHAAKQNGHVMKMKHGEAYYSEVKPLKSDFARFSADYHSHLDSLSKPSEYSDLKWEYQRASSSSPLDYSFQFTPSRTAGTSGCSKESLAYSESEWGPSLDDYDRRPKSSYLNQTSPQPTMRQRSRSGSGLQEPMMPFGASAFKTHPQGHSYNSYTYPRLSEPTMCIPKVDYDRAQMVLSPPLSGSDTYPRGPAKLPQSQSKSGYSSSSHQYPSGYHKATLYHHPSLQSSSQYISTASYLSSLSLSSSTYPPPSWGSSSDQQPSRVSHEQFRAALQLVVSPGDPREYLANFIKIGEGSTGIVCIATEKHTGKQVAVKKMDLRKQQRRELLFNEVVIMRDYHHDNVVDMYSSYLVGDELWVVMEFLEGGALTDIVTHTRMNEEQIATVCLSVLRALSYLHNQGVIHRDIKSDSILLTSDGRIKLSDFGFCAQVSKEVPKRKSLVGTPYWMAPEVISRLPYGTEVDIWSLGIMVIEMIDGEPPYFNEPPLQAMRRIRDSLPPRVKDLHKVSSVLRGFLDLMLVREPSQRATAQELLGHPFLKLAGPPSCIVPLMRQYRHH
Excerpt: (§1) However, the Aurora A/B selectivity ratios derived from our in vitro and in vivo data can be compared to prioritize inhibitors.

[2] = tested on: 363 human kinases (including Aurora A/B/C)
Excerpt: as §1

[3] = target: T1, 363 human kinases (including Aurora A/B/C) (Homo sapiens, UniProt Q13976); conditions: PKG1a; for remaining activity at 0.1 µM: 100 nM
T1 sequence (Q13976 1-671): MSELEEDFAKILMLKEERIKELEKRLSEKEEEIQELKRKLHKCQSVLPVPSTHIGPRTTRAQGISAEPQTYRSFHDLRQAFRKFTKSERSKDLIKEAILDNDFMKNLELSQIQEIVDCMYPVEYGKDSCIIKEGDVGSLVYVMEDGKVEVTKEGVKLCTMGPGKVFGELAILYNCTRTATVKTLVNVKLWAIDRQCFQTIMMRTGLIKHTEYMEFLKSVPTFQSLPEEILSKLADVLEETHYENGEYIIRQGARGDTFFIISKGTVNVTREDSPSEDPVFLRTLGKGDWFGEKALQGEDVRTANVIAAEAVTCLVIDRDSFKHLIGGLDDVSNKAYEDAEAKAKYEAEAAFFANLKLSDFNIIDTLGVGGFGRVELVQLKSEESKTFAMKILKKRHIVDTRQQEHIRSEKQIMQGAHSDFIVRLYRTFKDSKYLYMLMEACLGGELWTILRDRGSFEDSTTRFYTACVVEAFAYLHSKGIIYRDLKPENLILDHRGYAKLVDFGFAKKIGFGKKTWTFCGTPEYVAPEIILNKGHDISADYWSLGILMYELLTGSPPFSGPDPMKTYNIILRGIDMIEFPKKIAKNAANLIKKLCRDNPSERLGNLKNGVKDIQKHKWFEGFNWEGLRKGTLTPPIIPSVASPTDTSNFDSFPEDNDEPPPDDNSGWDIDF
Excerpt: as §1

[4] = target: 363 human kinases (including Aurora A/B/C) (Homo sapiens, UniProt Q15349); conditions: RSK3; for remaining activity at 0.1 µM: 100 nM; for remaining activity at 0.1 µM / remaining activity at 0.5 µM: read-out: % Enzyme Activity (relative to DMSO controls)
Chain of 363 human kinases (including Aurora A/B/C) (Homo sapiens, UniProt Q15349) (Q15349 whole entry): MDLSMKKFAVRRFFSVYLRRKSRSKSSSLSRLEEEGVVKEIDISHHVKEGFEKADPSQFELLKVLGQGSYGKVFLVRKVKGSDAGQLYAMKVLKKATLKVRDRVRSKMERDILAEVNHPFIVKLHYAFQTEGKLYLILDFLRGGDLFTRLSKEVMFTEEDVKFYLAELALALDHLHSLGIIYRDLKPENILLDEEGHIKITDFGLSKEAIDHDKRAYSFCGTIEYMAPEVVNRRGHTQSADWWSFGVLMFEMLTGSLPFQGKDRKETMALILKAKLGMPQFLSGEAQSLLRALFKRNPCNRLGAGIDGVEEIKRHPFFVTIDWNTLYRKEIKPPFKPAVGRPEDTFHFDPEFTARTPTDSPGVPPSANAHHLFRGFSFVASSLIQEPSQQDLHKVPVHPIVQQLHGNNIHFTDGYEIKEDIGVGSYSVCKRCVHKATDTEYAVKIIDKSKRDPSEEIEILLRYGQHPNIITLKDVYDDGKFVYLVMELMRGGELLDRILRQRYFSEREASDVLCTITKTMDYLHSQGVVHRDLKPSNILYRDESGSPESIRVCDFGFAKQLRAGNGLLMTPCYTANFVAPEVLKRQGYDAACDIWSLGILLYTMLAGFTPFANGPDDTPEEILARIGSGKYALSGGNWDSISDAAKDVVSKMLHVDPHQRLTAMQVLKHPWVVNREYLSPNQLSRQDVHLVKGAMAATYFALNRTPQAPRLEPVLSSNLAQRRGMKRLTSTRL
Excerpt: as §1

[5] = target: 363 human kinases (including Aurora A/B/C) (Homo sapiens, UniProt Q9H792); conditions: PEAK1; for remaining activity at 0.1 µM: 100 nM; for remaining activity at 0.1 µM / remaining activity at 0.5 µM: read-out: % Enzyme Activity (relative to DMSO controls)
Chain of 363 human kinases (including Aurora A/B/C) (Homo sapiens, UniProt Q9H792) (Q9H792 whole entry): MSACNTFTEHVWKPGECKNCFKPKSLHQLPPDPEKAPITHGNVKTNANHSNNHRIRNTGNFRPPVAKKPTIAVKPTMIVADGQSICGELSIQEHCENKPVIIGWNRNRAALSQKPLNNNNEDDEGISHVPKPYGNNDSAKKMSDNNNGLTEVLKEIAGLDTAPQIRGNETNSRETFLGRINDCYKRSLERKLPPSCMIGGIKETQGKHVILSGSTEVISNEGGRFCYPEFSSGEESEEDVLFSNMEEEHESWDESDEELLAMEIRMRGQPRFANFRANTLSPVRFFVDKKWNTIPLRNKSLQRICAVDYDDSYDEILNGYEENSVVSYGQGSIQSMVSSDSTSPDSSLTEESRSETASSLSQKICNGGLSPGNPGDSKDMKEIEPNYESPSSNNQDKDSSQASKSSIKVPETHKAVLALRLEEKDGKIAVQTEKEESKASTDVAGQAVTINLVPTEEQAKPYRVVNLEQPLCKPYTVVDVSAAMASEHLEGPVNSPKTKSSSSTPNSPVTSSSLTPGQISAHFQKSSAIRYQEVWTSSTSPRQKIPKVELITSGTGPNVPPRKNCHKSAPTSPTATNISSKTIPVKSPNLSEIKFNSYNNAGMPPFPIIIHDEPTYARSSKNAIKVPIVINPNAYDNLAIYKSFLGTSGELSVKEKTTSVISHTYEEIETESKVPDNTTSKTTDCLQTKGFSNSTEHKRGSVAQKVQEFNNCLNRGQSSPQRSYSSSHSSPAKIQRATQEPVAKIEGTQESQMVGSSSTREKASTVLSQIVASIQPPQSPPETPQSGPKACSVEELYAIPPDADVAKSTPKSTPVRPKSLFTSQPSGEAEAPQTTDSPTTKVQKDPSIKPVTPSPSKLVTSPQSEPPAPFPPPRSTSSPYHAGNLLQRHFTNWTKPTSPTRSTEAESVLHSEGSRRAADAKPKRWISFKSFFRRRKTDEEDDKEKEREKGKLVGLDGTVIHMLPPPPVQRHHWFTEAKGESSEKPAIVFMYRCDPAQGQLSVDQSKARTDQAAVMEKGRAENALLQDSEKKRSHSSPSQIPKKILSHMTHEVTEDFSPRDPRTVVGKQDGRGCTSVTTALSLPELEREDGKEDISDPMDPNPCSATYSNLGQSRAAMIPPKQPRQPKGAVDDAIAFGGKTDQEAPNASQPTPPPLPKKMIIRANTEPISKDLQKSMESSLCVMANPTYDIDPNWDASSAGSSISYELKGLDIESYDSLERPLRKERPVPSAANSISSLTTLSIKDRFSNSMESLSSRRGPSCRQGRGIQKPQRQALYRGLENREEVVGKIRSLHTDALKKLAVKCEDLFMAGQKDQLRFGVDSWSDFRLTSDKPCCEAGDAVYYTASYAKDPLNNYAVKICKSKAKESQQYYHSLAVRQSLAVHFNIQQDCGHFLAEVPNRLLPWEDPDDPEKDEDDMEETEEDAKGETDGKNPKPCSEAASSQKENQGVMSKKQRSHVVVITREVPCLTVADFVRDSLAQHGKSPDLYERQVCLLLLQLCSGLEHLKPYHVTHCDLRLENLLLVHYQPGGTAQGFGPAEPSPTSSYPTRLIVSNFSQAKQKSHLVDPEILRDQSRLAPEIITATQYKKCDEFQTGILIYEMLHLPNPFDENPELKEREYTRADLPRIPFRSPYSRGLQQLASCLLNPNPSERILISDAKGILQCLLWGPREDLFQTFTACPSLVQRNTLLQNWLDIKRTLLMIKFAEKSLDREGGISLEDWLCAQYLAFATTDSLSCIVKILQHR
Excerpt: as §1

[6] = target: T2, 363 human kinases (including Aurora A/B/C) (Homo sapiens, UniProt Q86YV6); conditions: MYLK4; for remaining activity at 0.1 µM: 100 nM; for remaining activity at 0.1 µM / remaining activity at 0.5 µM: read-out: % Enzyme Activity (relative to DMSO controls)
T2 sequence (Q86YV6 1-388): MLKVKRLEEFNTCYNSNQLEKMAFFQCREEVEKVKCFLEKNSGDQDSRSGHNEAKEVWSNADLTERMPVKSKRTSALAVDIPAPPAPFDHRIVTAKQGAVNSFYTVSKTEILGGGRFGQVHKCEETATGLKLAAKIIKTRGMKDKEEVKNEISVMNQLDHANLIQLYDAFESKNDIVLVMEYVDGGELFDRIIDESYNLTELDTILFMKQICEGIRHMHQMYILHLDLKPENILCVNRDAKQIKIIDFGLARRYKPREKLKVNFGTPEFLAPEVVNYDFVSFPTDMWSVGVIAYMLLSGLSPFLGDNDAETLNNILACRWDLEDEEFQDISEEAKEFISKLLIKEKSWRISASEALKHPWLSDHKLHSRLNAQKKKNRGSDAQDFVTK
Excerpt: as §1

[7] = target: T3, 363 human kinases (including Aurora A/B/C) (Homo sapiens, UniProt O15264); conditions: P38d/MAPK13; for remaining activity at 0.1 µM: 100 nM; for remaining activity at 0.1 µM / remaining activity at 0.5 µM: read-out: % Enzyme Activity (relative to DMSO controls)
T3 sequence (O15264 1-365): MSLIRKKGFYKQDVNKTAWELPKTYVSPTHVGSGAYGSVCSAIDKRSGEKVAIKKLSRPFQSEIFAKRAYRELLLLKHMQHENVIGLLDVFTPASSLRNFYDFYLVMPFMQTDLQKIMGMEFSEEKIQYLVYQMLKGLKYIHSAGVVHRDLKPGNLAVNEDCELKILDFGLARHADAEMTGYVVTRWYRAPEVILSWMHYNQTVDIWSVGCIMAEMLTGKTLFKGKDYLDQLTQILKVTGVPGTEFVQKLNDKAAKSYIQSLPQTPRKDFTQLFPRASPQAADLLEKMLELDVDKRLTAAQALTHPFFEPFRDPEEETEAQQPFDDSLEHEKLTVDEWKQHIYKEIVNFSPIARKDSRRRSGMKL
Excerpt: as §1

[8] = target: 363 human kinases (including Aurora A/B/C) (Homo sapiens, UniProt P78368); conditions: CK1g2, [ATP] 100 µM; for remaining activity at 0.1 µM: 100 nM; for remaining activity at 0.1 µM / remaining activity at 0.5 µM: read-out: % Enzyme Activity (relative to DMSO controls)
Chain of 363 human kinases (including Aurora A/B/C) (Homo sapiens, UniProt P78368) (P78368 whole entry): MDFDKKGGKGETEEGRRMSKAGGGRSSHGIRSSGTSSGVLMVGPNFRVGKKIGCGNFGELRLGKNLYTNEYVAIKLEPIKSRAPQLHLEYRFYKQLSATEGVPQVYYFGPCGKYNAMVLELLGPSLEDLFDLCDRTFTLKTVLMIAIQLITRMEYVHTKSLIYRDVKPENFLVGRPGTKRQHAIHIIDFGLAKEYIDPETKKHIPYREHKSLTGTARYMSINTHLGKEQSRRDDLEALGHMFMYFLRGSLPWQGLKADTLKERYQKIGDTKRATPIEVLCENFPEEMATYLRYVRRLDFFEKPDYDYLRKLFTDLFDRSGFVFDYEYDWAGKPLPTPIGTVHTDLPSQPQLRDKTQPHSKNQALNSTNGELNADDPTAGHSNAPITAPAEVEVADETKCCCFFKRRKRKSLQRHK
Excerpt: as §1

[9] = target: T4, 363 human kinases (including Aurora A/B/C) (Homo sapiens, UniProt Q9UHD2); conditions: TBK1; for remaining activity at 0.1 µM: 100 nM; for remaining activity at 0.1 µM / remaining activity at 0.5 µM: read-out: % Enzyme Activity (relative to DMSO controls)
T4 sequence (Q9UHD2 1-729): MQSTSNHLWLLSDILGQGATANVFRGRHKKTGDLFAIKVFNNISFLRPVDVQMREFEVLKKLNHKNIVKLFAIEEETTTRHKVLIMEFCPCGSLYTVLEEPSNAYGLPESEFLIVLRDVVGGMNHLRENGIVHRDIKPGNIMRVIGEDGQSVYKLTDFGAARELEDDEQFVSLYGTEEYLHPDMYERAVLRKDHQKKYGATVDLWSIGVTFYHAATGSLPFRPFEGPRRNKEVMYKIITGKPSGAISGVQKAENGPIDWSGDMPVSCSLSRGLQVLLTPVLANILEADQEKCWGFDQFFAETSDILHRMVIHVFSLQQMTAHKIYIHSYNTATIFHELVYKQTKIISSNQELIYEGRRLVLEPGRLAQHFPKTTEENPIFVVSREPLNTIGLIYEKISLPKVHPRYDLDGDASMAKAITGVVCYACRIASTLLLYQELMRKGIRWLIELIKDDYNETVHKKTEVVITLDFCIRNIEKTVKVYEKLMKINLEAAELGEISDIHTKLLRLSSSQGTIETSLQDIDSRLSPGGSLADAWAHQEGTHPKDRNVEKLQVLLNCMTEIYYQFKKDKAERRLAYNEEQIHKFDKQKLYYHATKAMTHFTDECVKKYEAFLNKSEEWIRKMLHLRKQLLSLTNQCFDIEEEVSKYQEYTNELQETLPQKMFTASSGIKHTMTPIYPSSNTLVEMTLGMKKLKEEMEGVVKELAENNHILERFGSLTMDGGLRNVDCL
Excerpt: as §1

[10] = read-out: % Enzyme Activity (relative to DMSO controls)

Structure (SMILES)	remaining activity at 0.1 µM [1] [%]	remaining activity at 0.1 µM [3, 10] [%]	remaining activity at 0.1 µM [4] [%]	remaining activity at 0.1 µM [5] [%]	remaining activity at 0.1 µM [6] [%]	remaining activity at 0.1 µM [7] [%]	remaining activity at 0.1 µM [8] [%]	remaining activity at 0.1 µM [9] [%]	remaining activity at 0.5 µM ([1]; 500 nM) [%]	remaining activity at 0.5 µM ([4]; 500 nM) [%]	remaining activity at 0.5 µM ([5]; 500 nM) [%]	remaining activity at 0.5 µM ([6]; 500 nM) [%]	remaining activity at 0.5 µM ([7]; 500 nM) [%]	remaining activity at 0.5 µM ([8]; 500 nM) [%]	remaining activity at 0.5 µM ([9]; 500 nM) [%]	other results
CCn1cc(-c2ccnc3[nH]c(-c4cccc(CN(C)C)c4)cc23)c(-c2ccc(NC(=O)N(C)C)cc2)n1 [GSK1070916]	99.9	126	95.2	90	94.3	91.7	89.5	93.7								Kinases inhibited ≥65% of control ([2]; 100 nM, 363 human kinases, [ATP] ~ Km(ATP)): Aurora A and B as well as DDR1
O=C(O)[C@]1(Cc2cccc(Nc3nccs3)n2)CC[C@@H](Oc2cccc(Cl)c2F)CC1 [MK-5108]	107	122	101	30.5	93	98.5	107	108	78.1	89.7	11.6	90.4	82.6	80.2	88.6	Number of kinases inhibited at >65% of control [2]: 75 kinases; Number of kinases inhibited at >65% of control (including the Aurora kinases) [2]: 32 kinases
O=C(c1cccc(Cl)c1F)N1CCN(Cc2cccc(Nc3nccs3)n2)CC1 [MK-8745]									103	99.9	39.1	93	100	87.5	105	% Enzyme Activity (relative to DMSO controls) ([1]; 500 nM): 92.01%; Kinases inhibited at >65% of control ([2]; 500 nM): Aurora A, AXL, BRK, DDR1, EphA6, GSK3α/β, IRAK1, JNK1, LKB1, ROS1, Trk A/B/C, TYRO3, YES; Number of kinases inhibited at >65% of control ([2]; 500 nM): 16 kinases; % Enzyme Activity (relative to DMSO controls) ([2]; LYN B, 500 nM): 85.04% and 84.52%; % Enzyme Activity (relative to DMSO controls) ([2]; PKCb2, 500 nM): 98.11% and 97.15%; % Enzyme Activity (relative to DMSO controls) ([2]; PKG1b, 500 nM): 109.42% and 102.59%; % Enzyme Activity (relative to DMSO controls) ([3]; 500 nM): 94.34%; remaining activity at 0.5 µM ([3]; 500 nM, read-out: % Enzyme Activity (relative to DMSO controls)): 95.4%; % Enzyme Activity (relative to DMSO controls) ([4]; 500 nM): 96.48%; % Enzyme Activity (relative to DMSO controls) ([5]; 500 nM): 38.63%; % Enzyme Activity (relative to DMSO controls) ([6]; 500 nM): 92.44%; % Enzyme Activity (relative to DMSO controls) ([7]; 500 nM): 96.82%; % Enzyme Activity (relative to DMSO controls) ([8]; 500 nM): 86.46%; % Enzyme Activity (relative to DMSO controls) ([9]; 500 nM): 102.60%
